# From US8546442B2, “Pyrazolopiperidine compounds as CCR1 receptor antagonists” (Boehringer Ingelheim International GmbH, priority 2010, dated 2013)
# Experiments:
# CCR1 [1] = biological target: T1, CCR1 (Homo sapiens, UniProt P32246); test: calcium flux in CCR1 transfected cells, Method A (Fluo-4 NW, FLIPR TETRA); format: cell-based; conditions: cells stably expressing recombinant CCR1 and G-alpha-16, MIP-1 alpha at EC80
# T1 sequence (P32246 1-355): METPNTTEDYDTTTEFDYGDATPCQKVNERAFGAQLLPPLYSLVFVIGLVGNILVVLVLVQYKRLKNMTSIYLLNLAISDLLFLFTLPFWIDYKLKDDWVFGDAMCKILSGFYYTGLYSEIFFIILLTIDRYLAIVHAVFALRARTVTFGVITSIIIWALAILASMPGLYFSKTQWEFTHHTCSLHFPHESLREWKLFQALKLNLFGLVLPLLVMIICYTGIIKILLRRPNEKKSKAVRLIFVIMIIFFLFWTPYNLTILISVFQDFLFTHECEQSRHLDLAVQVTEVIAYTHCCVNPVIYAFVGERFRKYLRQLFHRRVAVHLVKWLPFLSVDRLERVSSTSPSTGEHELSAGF
# Experimental: (§1) Compounds are assessed for the ability to block the interaction of CCR1 and MIP-1α in a functional cellular assay measuring calcium flux in CCR1 transfected cells.
# Method A: Non-adherent cells purchased from Chemicon Corporation (HTS005C), stably expressing recombinant CCR1 and G-alpha-16 are grown in RPMI 1640 medium (Mediatech 10-080-CM) supplemented with 10% heat-inactivated FBS, 0.4 mg/mL Geneticin and penicillin/streptomycin. On the day of the assay, the cells are transferred to a beaker and dye-loaded in bulk using a Fluo-4 NW Calcium Assay Kit with probenecid (Invitrogen F36205) at 0.8E6 cells/mL for 1 hour at room temperature. After 1 hour, they are seeded in a 384-well tissue culture-treated plate at a density of 20,000 cells/well. Appropriately diluted test compound is added to the well to achieve a top concentration of 3,000 nM (diluted 4-fold with 10 doses total). The final concentration of DMSO is 1%. The buffer is HBSS (Invitrogen 14025) with 20 mM HEPES at pH 7.4. The cells are allowed to incubate 1 hour in the dark at room temperature. The plates are transferred to the FLIPR TETRA where MIP-1 alpha in 1% BSA is added at the EC80 final concentration. Wells+/−MIP-1 alpha containing diluted DMSO instead of compound serve as the controls. Intracellular calcium flux is recorded on the FLIPR TETRA, using excitation at 470/495 nm and emission at 515/575 nm. Data are analyzed using Activity Base software.
# CCR1 [2] = biological target: T1, CCR1; test: calcium flux in CCR1 transfected cells, Method B (Calcium 4 dye, HAMAMATSU FDSS6000); format: cell-based; conditions: cells stably expressing recombinant CCR1 and G-alpha-16, MIP-1alpha at EC80
# Experimental: as §1
# Method B: Non-adherent cells purchased from Chemicon Corporation (HTS005C), stably expressing recombinant CCR1 and G-alpha-16 are grown in RPMI 1640 medium (Mediatech 10-080-CM) supplemented with 10% FBS, 0.4 mg/mL Geneticin and penicillin/streptomycin. On the day of the assay, the cells are loaded with Calcium 4 dye (Molecular Devices R7448) with Probenecid (Invitrogen P346400) at 8E5 cells/mL for 1 hour at room temperature. After 1 hour, they are seeded in a 384-well tissue culture-treated plate at a density of 20,000 cells/well. Appropriately diluted test compound is added to the well to achieve a top concentration of 3,000 nM (diluted 4-fold with 10 doses total). The final concentration of DMSO is 1%. The buffer is HBSS (Invitrogen 14025) with 20 mM HEPES at pH 7.4. The cells incubate 30 minutes at 37 C and then 30 minutes at room temperature. The plates are transferred to the HAMAMATSU FDSS6000 where MIP-1alpha in 1% BSA is added at the EC80 final concentration. All plates must be read within 4 hours of the start of dye-loading. Wells+/−MIP-1alpha containing diluted DMSO instead of compound serve as the controls. Data are analyzed using Activity Base software.
smiles,measurement,setting,value
"O=C(NCc1ccc(S(=O)(=O)NC2CCOCC2)cc1)N1CCCc2c1cnn2-c1ccc(F)cc1 [Example 28, 1-(4-Fluorophenyl)-1,5,6,7-tetrahydro-pyrazolo[4,3-b]pyridine-4-carboxylic acid 4-(tetrahydro-pyran-4-ylsulfamoyl)-benzylamide]",IC50,CCR1 [1],40 nM
same,IC50,CCR1 [2],10 nM
CNS(=O)(=O)c1ccc(CNC(=O)N2CCCc3c2cnn3-c2ccc(F)cc2)c(Cl)c1 [Example 31],IC50,CCR1 [1],3 nM
same,IC50,CCR1 [2],1 nM
CCCC(NC(=O)N1CCCc2c1cnn2-c1ccc(F)cc1)c1ccc(S(C)(=O)=O)nc1 (stereo not drawn) [Example 36],IC50,CCR1 [1],3 nM
same,IC50,CCR1 [2],3 nM
CNS(=O)(=O)c1ccc(CNC(=O)N2CCCc3c2cnn3-c2ccc(F)cc2)c(F)c1 [Example 38],IC50,CCR1 [1],11 nM
same,IC50,CCR1 [2],2 nM
CCCC(NC(=O)N1CCCc2c1cnn2-c1ccc(F)cc1)c1cncc(Br)c1 (stereo not drawn) [Example 39],IC50,CCR1 [1],0.2 nM
same,IC50,CCR1 [2],0.4 nM
O=C(NCc1cc(Cl)cc(Cl)c1)N1CCCc2c1cnn2-c1ccc(F)cc1 [Example 40],IC50,CCR1 [1],33 nM
same,IC50,CCR1 [2],3 nM
C[C@H](NC(=O)N1CCCc2c1cnn2-c1ccc(F)cc1)c1cncc(Br)c1 [Example 41],IC50,CCR1 [1],6 nM
same,IC50,CCR1 [2],2 nM
CC[C@H](NC(=O)N1CCCc2c1cnn2-c1ccc(F)cc1)c1cncc(Br)c1 [Example 42],IC50,CCR1 [1],0.4 nM
same,IC50,CCR1 [2],0.2 nM
CC[C@H](NC(=O)N1CCCc2c1cnn2-c1ccc(F)cc1)c1cncc(S(C)(=O)=O)c1 [Example 45],IC50,CCR1 [1],1 nM
same,IC50,CCR1 [2],0.6 nM
CCC[C@H](NC(=O)N1CCCc2c1cnn2-c1ccc(F)cc1)c1cncc(Br)c1 [Example 46],IC50,CCR1 [1],0.2 nM
same,IC50,CCR1 [2],0.2 nM
CCC[C@H](NC(=O)N1CCCc2c1cnn2-c1ccc(F)cc1)c1cncc(S(C)(=O)=O)c1 [Example 47],IC50,CCR1 [1],0.4 nM
same,IC50,CCR1 [2],0.2 nM
"CC[C@H](NC(=O)N1CCCc2c1cnn2-c1ccc(F)cc1)c1ccc(Br)nc1 [Example 48, 1-(4-Fluorophenyl)-1,5,6,7-tetrahydro-pyrazolo[4,3-b]pyridine-4-carboxylic acid [(S)-1-(6-bromo-pyridin-3-yl)-propyl]-amide]",IC50,CCR1 [1],19 nM
same,IC50,CCR1 [2],2 nM
CCC[C@H](NC(=O)N1CCCc2c1cnn2-c1ccc(F)cc1)c1ccc(Br)nc1 [Example 49],IC50,CCR1 [1],12 nM
same,IC50,CCR1 [2],2 nM
CCC[C@H](NC(=O)N1CCCc2c1cnn2-c1ccc(F)cc1)c1ccc(S(C)(=O)=O)nc1 [Example 50],IC50,CCR1 [1],4 nM
same,IC50,CCR1 [2],0.9 nM
CC[C@H](NC(=O)N1CCCc2c1cnn2-c1ccc(F)cc1)c1ccc(S(C)(=O)=O)nc1 [Example 51],IC50,CCR1 [1],14 nM
same,IC50,CCR1 [2],3 nM
CC[C@H](NC(=O)N1c2cnn(-c3ccc(F)cc3)c2CCC1C)c1ccnc(S(C)(=O)=O)c1 (stereo partly drawn) [Example 55],IC50,CCR1 [1],13 nM
same,IC50,CCR1 [2],12 nM
CC[C@H](NC(=O)N1CCCc2c1cnn2-c1ccc(F)cc1)c1ccnc(S(C)(=O)=O)c1 [Example 59],IC50,CCR1 [1],0.4 nM
same,IC50,CCR1 [2],0.6 nM
CCC[C@H](NC(=O)N1CCCc2c1cnn2-c1ccc(F)cc1)c1ccnc(S(C)(=O)=O)c1 [Example 60],IC50,CCR1 [1],0.5 nM
same,IC50,CCR1 [2],0.3 nM
CCC[C@H](NC(=O)N1c2cnn(-c3ccc(F)cc3)c2CCC1C(F)(F)F)c1cncc(S(C)(=O)=O)c1 (stereo partly drawn) [Example 61],IC50,CCR1 [1],12 nM
same,IC50,CCR1 [2],8 nM
CCC[C@H](NC(=O)N1CCCc2c1cnn2-c1ccc(F)cc1F)c1ccnc(S(C)(=O)=O)c1 [Example 62],IC50,CCR1 [1],1 nM
same,IC50,CCR1 [2],1 nM
CCC[C@H](NC(=O)N1CCCc2c1cnn2-c1c(F)cc(F)cc1F)c1ccnc(S(C)(=O)=O)c1 [Example 63],IC50,CCR1 [1],14 nM
same,IC50,CCR1 [2],14 nM
